{"source": "patent US20180185374A1", "about": "“INHIBITORS OF MTOR KINASE AS ANTI-VIRAL AGENTS” (THE TRUSTEES OF PRINCETON UNIVERSITY, priority 2009, published 2018)", "key": {"[1]": {"tested_on": "HCMV", "experiment": "HCMV DNA accumulation by qPCR", "format": "cell-based, human cytomegalovirus", "settings": "96 hpi; Torin1 250 nM; 0.05 PFU/cell", "description": "FIG. 3. […] (A) Rapamycin-resistant mTOR activity is required for the accumulation of an some but not all HCMV proteins. […] Cells were harvested at the indicated times, and the accumulation of the indicated proteins was analyzed by Western blotting. […] At the indicated times DNA was isolated, and viral DNA was quantified by qPCR. Equivalent amounts of DNA were analyzed for each sample, and the results are normalized to the level of actin DNA per sample. […] At the indicated times the amount of UL99 RNA was determined by qPCR, and the results are normalized to the amount of actin RNA in each sample.\nDetermination of viral DNA and transcript accumulation in infected cells. The accumulation of viral DNA during HCMV infection was monitored by quantitative PCR (qPCR) as described previously (Terhune, et al. (2007) J. Virol. 81:3109-3123).\nBriefly, primary human fibroblasts were infected with BADinGFP at a multiplicity of 0.05 PFU/cell. At the indicated times, cells were harvested by scraping them into medium and were stored as frozen cell pellets until analysis. Cell pellets were resuspended in 500 μl of a solution containing 400 mM NaCl, 10 mM Tris (pH 7.5), and 10 mM EDTA. […] For each sample, DNA was quantified by using a NanoDrop spectrophotometer (Thermo Scientific). […]\nViral DNA accumulation was measured by quantitative real-time PCR of fibroblasts treated with rapamycin or Torin1. […]"}, "[2]": {"tested_on": "rpS6", "experiment": "rpS6 phosphorylation in HCMV-infected fibroblasts, Western blot", "format": "cell-based, human", "settings": "rapamycin 20 nM, Torin1 250 nM; 3 PFU/cell", "description": "FIG. 4. Rapamycin-resistant mTOR activity is required for 4EBP1 phosphorylation and eIF4F complex integrity during HCMV infection. Serum-starved confluent human fibroblasts were infected with HCMV at a multiplicity of 3 PFU/cell. […] (A) At 48 hpi the phosphorylation status of mTORC1 targets was assessed by Western blot assay by using antibodies to phosphorylated targets (4EBP1-PT^37/46 and rpS6-PS^235/6) and total proteins. Tubulin was assayed as a loading control. (B) Same as above (A) except that cells were harvested at the indicated times. (C and D) After mock infection (M) or infection with HCMV (WT) at a multiplicity of 3 PFU/cell, cultures were harvested at the indicated times. Equivalent amounts of protein from each sample were incubated with m^7GTP-Sepharose, and the isolated protein complexes were analyzed by Western blotting using the indicated antibodies to the eIF4F complex and 4EBP1. In all cases the results are representative of at least two independent experiments. lys, lysate.\nHCMV infection induces mTORC1 activity, but the phosphorylation of mTORC1 targets is differentially sensitive to the mTORC1 inhibitor rapamycin. […] Total 4EBP1, rpS6, and tubulin levels were monitored to control for protein recovery. […]"}, "[3]": {"tested_on": "γHV68", "experiment": "γHV68 replication in MEFs, TCID50", "format": "cell-based, murine gammaherpesvirus 68", "settings": "0.05 PFU/cell, 6 days post infection, rapamycin 20 nM, Torin1 250 nM"}}, "data": [{"smiles": "CCC(=O)N1CCN(c2ccc(-n3c(=O)ccc4cnc5ccc(-c6cnc7ccccc7c6)cc5c43)cc2C(F)(F)F)CC1", "note": "[Torin1]", "values": [{"measurement": "reduction of viral DNA accumulation", "setting": "[1]", "value": 150, "unit": "fold"}, {"measurement": "induction of rpS6 phosphorylation during HCMV infection", "setting": "[2]", "value": "markedly inhibited"}, {"measurement": "γHV68 replication", "setting": "[3]", "value": "inhibited both viruses"}]}]}
